Two compounds from PMC8921165, “Preclinical characterization of [^18F]T-008, a novel PET imaging radioligand for cholesterol 24-hydroxylase” (European Journal of Nuclear Medicine and Molecular Imaging, 2021) can be followed below.

SMILES strings stand for the structures.

In assay [1] the target is T1, Cholesterol 24-hydroxylase (CH24H) (Mus musculus, UniProt Q9WVK8).
T1 construct: gene Cyp46a1
As to the kind of experiment: [3H]T-008 saturation radioligand binding; autoradiography in WT vs CH24H KO mouse brain sections.

Assay [2] deals with T2, Cholesterol 24-hydroxylase (CH24H) (Macaca mulatta, UniProt A0A5F7ZPE8).
T2 construct: gene CYP46A1
As to the kind of experiment: in vivo PET enzyme occupancy, displacement of […]T-008 in rhesus brain.

Usually Kd stands for a measure of binding affinity in units of concentration. Higher therefore signals weaker binding. The EC50 is the concentration needed to bring the measured effect to its halfway point. High values mean a need for much substance, low ones an effect from little substance.

T2 sequence (A0A5F7ZPE8 1-500): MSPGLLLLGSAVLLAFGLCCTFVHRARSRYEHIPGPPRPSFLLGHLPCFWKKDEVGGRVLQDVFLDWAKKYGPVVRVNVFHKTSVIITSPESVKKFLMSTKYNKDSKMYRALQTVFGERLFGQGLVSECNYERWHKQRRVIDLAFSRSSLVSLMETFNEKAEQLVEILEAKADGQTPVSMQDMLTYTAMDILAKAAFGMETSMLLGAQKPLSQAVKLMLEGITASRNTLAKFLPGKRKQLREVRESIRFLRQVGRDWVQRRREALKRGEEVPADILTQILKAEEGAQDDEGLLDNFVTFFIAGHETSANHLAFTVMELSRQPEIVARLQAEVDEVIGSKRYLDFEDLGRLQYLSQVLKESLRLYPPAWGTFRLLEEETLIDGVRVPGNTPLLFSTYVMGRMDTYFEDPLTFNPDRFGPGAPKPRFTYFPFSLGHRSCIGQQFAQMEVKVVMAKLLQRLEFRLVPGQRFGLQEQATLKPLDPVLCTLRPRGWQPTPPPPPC
T1 sequence (Q9WVK8 whole entry): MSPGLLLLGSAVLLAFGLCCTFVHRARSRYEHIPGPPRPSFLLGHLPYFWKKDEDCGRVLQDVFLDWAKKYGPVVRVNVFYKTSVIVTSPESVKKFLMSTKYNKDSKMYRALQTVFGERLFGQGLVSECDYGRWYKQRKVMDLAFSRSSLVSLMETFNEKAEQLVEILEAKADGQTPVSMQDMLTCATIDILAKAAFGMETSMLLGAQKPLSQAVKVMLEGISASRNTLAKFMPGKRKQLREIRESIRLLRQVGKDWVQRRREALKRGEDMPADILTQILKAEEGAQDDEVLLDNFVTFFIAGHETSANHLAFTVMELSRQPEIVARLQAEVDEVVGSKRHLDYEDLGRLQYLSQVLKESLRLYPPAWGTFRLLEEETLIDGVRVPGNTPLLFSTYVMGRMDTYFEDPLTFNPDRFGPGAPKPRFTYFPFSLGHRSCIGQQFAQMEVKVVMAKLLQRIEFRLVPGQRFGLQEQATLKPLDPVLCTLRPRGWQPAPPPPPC

In turn, `O=C(C1CCN(c2cncnc2-c2ccc(F)cc2)CC1)N1CC(F)C1` [T-008, (3-fluoroazetidin-1-yl){1-[4-(4-fluorophenyl)pyrimidin-5-yl]piperidin-4-yl}methanone] displayed an equilibrium dissociation constant (Kd) in assay [1] of 14 ± 1 nM.
For `O=C(c1cccnc1-c1ccncc1)N1CCC(O)(Cc2ccccc2)CC1` [soticlestat, (4-benzyl-4-hydroxypiperidin-1-yl)(2,4′-bipyridin-3-yl) methanone], in assay [2], the midpoint of the response, the EC50, lay at 3.39 nM.
